One data set relates to HaCaT cells. In words: Cell penetration rate by flow cytometry. It is filed as cell-based, human. As to conditions: 10 μM, 37° C., 1 hour. The protocol:
HaCaT cells were inoculated at a concentration of 3×10^5 cells/well into a 6-well plate and incubated for 24 hours. Then, the cell culture medium was removed, followed by washing twice with HBSS, and replaced with an Opti-MEM medium. The cells were treated with 10 μM FITC-TAT, FITC-Spep001, FITC-Spep002 or FITC-Spep003 and incubated at 37° C. with 5% CO2 for 1 hour. […] Finally, the cells were treated with 1 mg/mL trypsin and thus separated into single cells, followed by centrifugation at 1,000 rpm for 5 minutes. The FITC fluorescence intensities of cell-penetrating peptides per living 10,000 cells were measured by performing flow cytometry (Navios Flow Cytometer by Beckman Coulter Life Sciences), and the result thereof is shown in FIG. 5A(i) to FIG. 5A(v) and FIG. 5B.

Data set [1] in a line: Cytotoxicity assay (WST-1, microscopy) in HaCaT cells. The class given is cell-based, human. As to conditions: human, HaCaT cells (keratinocytes); for viability at 24 h, 25 µM / viability at 24 h, 50 µM / viability at 24 h, 100 µM / viability at 24 h, 200 µM: HaCaT, read-out: survival rate (WST-1); for viability at 24 h, 25 µM: 25 μM peptide; for viability at 24 h, 50 µM: 50 μM peptide; for viability at 24 h, 100 µM: 100 μM peptide; for viability at 24 h, 200 µM: 200 μM peptide; for viability at 24 h: at all concentrations (25-200 μM), read-out: survival rates of the HaCaT cells. The procedure:
(§1) Cytotoxicity of the cell-penetrating multifunctional peptide according to Example 1 was checked. Specifically, HaCaT cells (human keratinocytes) were inoculated at a concentration of 1.5×10^4 cells/well into a 96-well plate and incubated for 24 hours. Then, the medium was removed, followed by washing once with PBS, and replaced with a serum-free medium. The cells were treated with Spep001 (SEQ ID NO: 1), Spep002 (SEQ ID NO: 8) or Spep003 (SEQ ID NO: 9) at a concentration of 0 μM, 25 μM, 50 μM, 100 μM or 200 μM and then further incubated for 24 hours. Herein, culture conditions were maintained at 37° C. with 5% CO2.
(§2) At the time of completion of further incubation, the appearance of the cells were imaged by a microscope, and the result thereof is shown in FIG. 2A(i) to FIG. 2A(xx).
(§3) Also, at the time of completion of incubation, a WST-1 assay (Water Soluble Tetrazolium salt-1, EZ-assay kit, DoGenBio) was conducted. Specifically, 100 μL of a WST-1 solution was added to the well of cells after the completion of further incubation and then incubated for 3 hours. Thereafter, the absorbance at 450 nm was measured using a microplate spectrophotometer (Multiskan™ GO, thermo), and the result thereof is shown in FIG. 2B and Table 2 below.
(§4) Herein, all the result values are expressed in mean±standard deviation. The analysis result of each item was statistically analyzed by a 2-way analysis of variance (ANOVA) test. A Bonferroni post-test was conducted at a P value of *p<0.05 and **p<0.01 only when the significance was determined by ANOVA test. GraphPad prism 5.0.1 (GraphPad Software Inc., San Diego, CA, USA) was used as a statistical software program.
(In general: Tetrazolium assays rely on reduction of a dye to a coloured formazan, in cell work by metabolically active cells.)

The nature of data set [2]: Cytotoxicity assay (WST-1, microscopy) in HDF-N cells. As to conditions: human, HDF-N cells (dermal fibroblasts, neonatal); for viability at 24 h, 25 µM / viability at 24 h, 50 µM / viability at 24 h, 100 µM / viability at 24 h, 200 µM: HDF-N, read-out: survival rate (WST-1); for viability at 24 h, 25 µM: 25 μM peptide; for viability at 24 h, 50 µM: 50 μM peptide; for viability at 24 h, 100 µM: 100 μM peptide; for viability at 24 h, 200 µM: 200 μM peptide; for viability at 24 h: at all concentrations (25-200 μM), read-out: survival rates of the HDF-N cells. The class given is cell-based, human. The procedure: as §1, §3
(§5) The appearance of HDF-N (human dermal fibroblast-neonatal) cells were imaged by a microscope as in Example 3, and the result thereof is shown in FIG. 3A(i) to FIG. 3A(xx). However, the HDF-N cells were inoculated at a concentration of 1.0×10^4 cells/well into a 96-well plate.

In data set [3] the test system is HaCaT cells (human keratinocytes). As to the kind of experiment: Cytotoxicity assay (WST-1, microscopy) in HaCaT cells. The note with it: for cytotoxicity: HaCaT cells; for change in the appearance of the cells (microscope): HaCaT, all concentrations. The class given is cell-based. The procedure: as §1, §2, §3, §4
In data set [4] the test system is HDF-N (human dermal fibroblast-neonatal) cells. As to the kind of experiment: Cytotoxicity assay (WST-1, microscopy) in HDF-N cells. The class given is cell-based. As to conditions: for cytotoxicity: HDF-N cells; for change in the appearance of the cells (microscope): HDF-N, all concentrations. The protocol: as §1, §3, §5

Ends that are not written are not given here.

Take `O=C1OC2(c3ccc(O)cc3Oc3cc(O)ccc32)c2ccc(N=C=S)cc21` [FITC, Fluorescein-5-Isothiocyanate, reference compound]: the “cell penetration rate (FITC-positive cell count)” value in the data set on HaCaT cells was 0.4%.

In the case of `N=C(N)NCCC[C@H](NC(=O)[C@H](CCCNC(=N)N)NC(=O)[C@H](CCCNC(=N)N)NC(=O)[C@H](CCC(N)=O)NC(=O)[C@H](CCCNC(=N)N)NC(=O)[C@H](CCCNC(=N)N)NC(=O)[C@H](CCCCN)NC(=O)[C@H](CCCCN)NC(=O)[C@H](CCCNC(=N)N)NC(=O)CNC(=O)[C@@H](N)Cc1ccc(O)cc1)C(=O)O` [TAT, YGRKRRQRRR, reference compound], in data set [1], the viability at 24 h, 25 µM was found to be 102 ± 5.09%; the viability at 24 h, 50 µM came out at 106.3 ± 1.05%; the viability at 24 h, 100 µM is 106 ± 2.94%; the viability at 24 h, 200 µM was 102 ± 2.15%. In data set [2], the viability at 24 h, 25 µM came out at 106 ± 3.38%; the viability at 24 h, 50 µM worked out at 94.9 ± 4.22%; the viability at 24 h, 100 µM amounted to 103 ± 3.02%; the viability at 24 h, 200 µM came to 96.7 ± 5.03%.

For the compound KRRWRKIPKR [Spep002, KRRWRKIPKR], in data set [1], the viability at 24 h, 25 µM is 104.7 ± 0.17%; the viability at 24 h, 50 µM is 103 ± 1.97%; the viability at 24 h, 100 µM came to 101 ± 1.97%; the viability at 24 h, 200 µM was found to be 99.01 ± 0.62%. In addition, in data set [1], the viability at 24 h was not below 90%. Moreover, in data set [3], the cytotoxicity entry was “do not express cytotoxicity” and the “change in the appearance of the cells (microscope)” value (“change in the appearance” for short) is given as “no change in the appearance”. In addition, in data set [2], the viability at 24 h, 25 µM is 102 ± 4.11%; the viability at 24 h, 50 µM stood at 104.6 ± 0.75%; the viability at 24 h, 100 µM worked out at 108 ± 1.66%; the viability at 24 h, 200 µM was 101 ± 2.44%. Besides, the viability at 24 h in data set [2] was not below 90%. For the same compound, in data set [4], the cytotoxicity result is on record as “do not express cytotoxicity” and the “change in the appearance” value is “no change in the appearance”.

On to RKRWLRKPRP [Spep003, RKRWLRKPRP], for which, in data set [1], the viability at 24 h, 25 µM is 98.3 ± 4.45%; the viability at 24 h, 50 µM was found to be 98.6 ± 1.01%; the viability at 24 h, 100 µM worked out at 103 ± 0.6%; the viability at 24 h, 200 µM came to 99.9 ± 1.79%. In data set [1], the viability at 24 h was not below 90%. Also, in data set [3], the cytotoxicity result is “do not express cytotoxicity” and the “change in the appearance” value was “no change in the appearance”. In data set [2], the viability at 24 h, 25 µM turned out to be 118 ± 5.3%; the viability at 24 h, 50 µM came to 104 ± 1.71%; the viability at 24 h, 100 µM worked out at 108 ± 3.07%; the viability at 24 h, 200 µM was found to be 113.5 ± 0.59%. In data set [2], the viability at 24 h was not below 90%. In addition, in data set [4], the cytotoxicity entry was “do not express cytotoxicity” and the “change in the appearance” value was “no change in the appearance”.

Regarding RLRLRQRRRR [Spep001, RLRLRQRRRR], in data set [1], the viability at 24 h, 25 µM turned out to be 103 ± 1.62%; the viability at 24 h, 50 µM was 103 ± 2.21%; the viability at 24 h, 100 µM came to 106 ± 2.23%; the viability at 24 h, 200 µM came to 110 ± 7.48%. For the same compound, the viability at 24 h in data set [1] is not below 90%. Also, in data set [3], the cytotoxicity result is “do not express cytotoxicity” and the “change in the appearance” value is given as “no change in the appearance”. In addition, in data set [2], the viability at 24 h, 25 µM came out at 93.39 ± 0.66%; the viability at 24 h, 50 µM is 101 ± 2.71%; the viability at 24 h, 100 µM worked out at 95 ± 1.53%; the viability at 24 h, 200 µM was 94.5 ± 2.41%. The viability at 24 h in data set [2] was not below 90%. In data set [4], the cytotoxicity entry is given as “do not express cytotoxicity” and the “change in the appearance” value was “no change in the appearance”.

The values are drawn from patent US11951204B2, “Cell-penetrating peptides and composition including the same” (S-SKIN. CO., LTD., priority 2022, dated 2024).
